Results: patent publication US20180292376A1, “DIFFUSION CELL TESTING METHODS CONTAINING BIPHASIC RECEPTOR FLUIDS” (BUFFERAD Illinois Inc. d/b/a Zyleris PharmaTech, Inc., priority 2017, published 2018)

Columns and labels:
[1] = In vitro release testing (IVRT), static vertical diffusion cell, synthetic membrane, UV-VIS analysis; type: physicochemical; details: petrolatum ointment with 0.5% loteprednol etabonate and 0.3% tobramycin sulfate; 1-octanol:1-hexanol:water 25:25:50 v:v:v
Method: In Vitro Release Testing Method.
Release of pharmaceutically active compounds from semi-solid dosage forms was evaluated in an in vitro model of static vertical diffusion cell using a synthetic membrane model. […] The samples were analyzed using a UV-VIS spectrometer. […]
Test time points: 0, 2, 4, 6, 8, and 10 hours. Each test was conducted in four replicates (N=4). Square root of test time points: 0, 1.41, 2.00, 2.45, 2.83, and 3.16.
Membrane: Polypropylene (pore size: 0.45 micron).
Static vertical diffusion cell parameters: Area of the membrane diffusion area: 0.95 square centimeters.
Dosing level: infinite dose at about 3.0 milliliter of the semi-solid dosage form.
Static vertical diffusion cell consists of a donor and receptor compartment separated by a synthetic membrane. The dosing compartment was for the dosed semi-solid dosage form. […] Before dosing, the diffusion cell was pre-incubated at 32° C. for about 20 to 45 minutes. The t=0 samples were taken after the incubation period prior to dosing.
During the experiment, the receptor fluid was in intimate contact with the membrane through a mixing mechanism, such as, e.g., magnetic stirring bar, or orbit shaker, and maintained at 32° C. using a heating mechanism, such as, e.g., dry heat block, or circulating water bath. At each time point, entire content of the receptor fluid was collected and replaced with a fresh batch pre-incubated at 32° C.
An ointment dosage form was prepared as an example of the semi-solid dosage form. Petrolatum was heated to about 50 to 70° C. while mixing. Xylene Cyanol was added to the heated petrolatum while heating and mixing. The mixture was mixed until uniform. Then, the mixture was slowly cooled to room temperature while mixing to yield the ointment formulation.

[2] = general statement, no test described; cited from earlier work

CCOC(=O)O[C@]1(C(=O)OCCl)CC[C@H]2[C@@H]3CCC4=CC(=O)C=C[C@]4(C)[C@H]3[C@@H](O)C[C@@]21C [loteprednol etabonate, Loteprednol etabonate]
phase of the biphasic receptor fluid in which the released compound is solubilized [1]: mostly solubilized in the organic 1-octanol/1-hexanol phase

Tobramycin sulfate
solubility in water [2]: freely soluble
